We go through four compounds from patent US4311698A, “Aminoacid derivatives of cephalosporin compounds” (priority 1980, dated 1982).

The structures appear in SMILES notation. In brackets after ≈: the same amount, converted by molar mass.

Common to all, as to type: cell-based
One assay concerns Pseudomonas #28. As to the kind of experiment: In vitro minimal inhibitory concentration, Pseudomonas #28. The settings on record: Pseudomonas #28; in vitro; read-out: Minimal Inhibitory Concentration.
The next assay relates to Pseudomonas BRK 12-4-4. As to the kind of experiment: In vitro minimal inhibitory concentration, Pseudomonas BRK 12-4-4. The settings on record: BRK1244.
The subject of a further assay is Pseudomonas UI 18. Briefly: In vitro minimal inhibitory concentration, Pseudomonas UI 18. To be noted: UI18.
Another assay has as its system E. Coli. Brig. Briefly: In vitro minimal inhibitory concentration, E. Coli. Brig. To be noted: Escherichia coli.
Another assay has as its system E. Coli. Vogel. As to the kind of experiment: In vitro minimal inhibitory concentration, E. Coli. Vogel. To be noted: Escherichia coli.
In another assay the test system is Prot Vulg. Briefly: In vitro minimal inhibitory concentration, Prot Vulg.
Another assay deals with Entero Cloac. IM 11. As to the kind of experiment: In vitro minimal inhibitory concentration, Entero Cloac. IM 11.
The next assay relates to Serr. Mar. IMM 16. As to the kind of experiment: In vitro minimal inhibitory concentration, Serr. Mar. IMM 16.
The next assay concerns Klebs. Pneum. MGH 2. Briefly: In vitro minimal inhibitory concentration, Klebs. Pneum. MGH 2.
In another assay the test system is Strep. fec. MGH 2. As to the kind of experiment: In vitro minimal inhibitory concentration, Strep. fec. MGH 2.
For a further assay, the system named is Staph UC76. As to the kind of experiment: In vitro minimal inhibitory concentration, Staph UC76.

On to `CC(=O)NC(C)C(=O)Nc1ccc(-c2ccc(C(=O)N[C@@H](C(=O)NC3C(=O)N4C(C(=O)O)=C(COC(C)=O)CSC34)c3ccccc3)c(=O)[nH]2)cc1` (mixture of isomers) [Example 3, N-[6-[4-(N-Acetyl-DL-alanylamino)phenyl]-1,2-dihydro-2-oxonicotinyl]-7-[D-2-amino-2-phenylacetamido]-3-acetoxymethyl cephem-4-carboxylic acid], for which the MIC in the assay with Pseudomonas #28 is 12.5 µg/mL; against Pseudomonas BRK 12-4-4, 12.5 µg/mL; with Pseudomonas UI 18, 6.3 µg/mL; with E. Coli. Brig, 12.5 µg/mL; in the assay on E. Coli. Vogel it was 3.1 µg/mL; with Prot Vulg., 25 µg/mL. The MIC in the assay with Entero Cloac. IM 11 was found to be 25 µg/mL; with Serr. Mar. IMM 16, 25 µg/mL; against Klebs. Pneum. MGH 2, 6.3 µg/mL; against Strep. fec. MGH 2 it was 25 µg/mL; in the assay with Staph UC76, 0.4 µg/mL.
Consider `CC(=O)N[C@H](C)C(=O)Nc1ccc(-c2ccc(C(=O)N[C@@H](C(=O)NC3C(=O)N4C(C(=O)O)=C(COC(C)=O)CSC34)c3ccccc3)c(=O)[nH]2)cc1` (stereo partly drawn) [Example 4, N-[6-[4-(N-Acetyl-D-alanylamino)phenyl]-1,2-dihydro-2-oxonicotinyl]-7-[D-2-amino-2-phenylacetamido]-3-acetoxymethyl-3-cephem-4-carboxylic acid], for which the MIC in the assay on Pseudomonas #28 is 6.3 µg/mL (≈ 8.62 µM); in the assay with Pseudomonas BRK 12-4-4 it was 12.5 µg/mL (≈ 17.1 µM); in the assay on Pseudomonas UI 18, 6.3 µg/mL (≈ 8.62 µM); against E. Coli. Brig, 12.5 µg/mL (≈ 17.1 µM); against E. Coli. Vogel it was 3.1 µg/mL (≈ 4.24 µM); in the assay with Prot Vulg., 25 µg/mL (≈ 34.2 µM). Also, the MIC against Entero Cloac. IM 11 amounted to 12.5 µg/mL (≈ 17.1 µM); in the assay on Serr. Mar. IMM 16, 50 µg/mL (≈ 68.4 µM); against Klebs. Pneum. MGH 2, 6.3 µg/mL (≈ 8.62 µM); in the assay on Strep. fec. MGH 2, 25 µg/mL (≈ 34.2 µM); against Staph UC76, 0.8 µg/mL (≈ 1.09 µM).
For the compound `CC(=O)N[C@@H](C)C(=O)Nc1ccc(-c2ccc(C(=O)N[C@@H](C(=O)NC3C(=O)N4C(C(=O)O)=C(CSc5nnnn5C)CSC34)c3ccccc3)c(=O)[nH]2)cc1` (stereo partly drawn) [Example 20, N-[6-[4-(N-Acetyl-L-alanylamino)phenyl]-1,2-dihydro-2-oxonicotinyl]7-[D-2-amino-2-phenylacetamido]-3-[[(1-methyl-1H-tetrazol-5-yl)thio]methyl]-3-cephem-4-carboxylic acid], the MIC in the assay on Pseudomonas #28 stood at 12.5 µg/mL (≈ 15.9 µM); against Pseudomonas BRK 12-4-4, 12.5 µg/mL (≈ 15.9 µM); with Pseudomonas UI 18, 12.5 µg/mL (≈ 15.9 µM); against E. Coli. Brig, 6.3 µg/mL (≈ 8.01 µM); with E. Coli. Vogel it was 1.6 µg/mL (≈ 2.03 µM); against Prot Vulg. it was 12.5 µg/mL (≈ 15.9 µM). Besides, the MIC in the assay on Entero Cloac. IM 11 was determined as 6.3 µg/mL (≈ 8.01 µM); in the assay on Serr. Mar. IMM 16, 25 µg/mL (≈ 31.8 µM); in the assay on Klebs. Pneum. MGH 2, 1.6 µg/mL (≈ 2.03 µM); against Strep. fec. MGH 2, 25 µg/mL (≈ 31.8 µM); against Staph UC76, 1.6 µg/mL (≈ 2.03 µM).
`CC(=O)N[C@@H](CCC(N)=O)C(=O)Nc1ccc(-c2ccc(C(=O)N[C@@H](C(=O)NC3C(=O)N4C(C(=O)O)=C(CSc5nnnn5CC(=O)O)CSC34)c3ccccc3)c(=O)[nH]2)cc1` (stereo partly drawn) [Example 21, N-[6-[4-(N-Acetyl-L-glutaminylamino)phenyl]-1,2-dihydro-2-oxonicotinyl]-7-[D-2-amino-2-phenylacetamido]-3-[[(1-carboxymethyl-1H-tetrazol-5-yl)thio]methyl]-3-cephem-4-carboxylic acid]: the MIC with Pseudomonas #28 came to 6.3 µg/mL (≈ 7.1 µM); in the assay with Pseudomonas BRK 12-4-4, 12.5 µg/mL (≈ 14.1 µM); in the assay with Pseudomonas UI 18 it was 6.3 µg/mL (≈ 7.1 µM); in the assay on E. Coli. Brig it was 3.1 µg/mL (≈ 3.49 µM); against E. Coli. Vogel, 3.1 µg/mL (≈ 3.49 µM); in the assay on Prot Vulg., 3.1 µg/mL (≈ 3.49 µM). Further, the MIC was 6.3 µg/mL (≈ 7.1 µM) against Entero Cloac. IM 11; 12.5 µg/mL (≈ 14.1 µM) in the assay on Serr. Mar. IMM 16; 3.1 µg/mL (≈ 3.49 µM) against Klebs. Pneum. MGH 2; 50 µg/mL (≈ 56.3 µM) against Strep. fec. MGH 2; 6.3 µg/mL (≈ 7.1 µM) in the assay with Staph UC76.
